Data as given in article PMC9182007, “Statistical Methods in the Study of Protein Binding and Its Relationship to Drug Bioavailability in Breast Milk” (Molecules, 2022).
Read-outs that look alike come from different tables or passages of the source.

What was measured:
[1] = target: T1, bovine serum albumin (BSA) (Bos taurus, UniProt P02769); experiment: RP TLC on plates impregnated with bovine serum albumin; assay type: binding; details: for RP (Rf value from the RP plate impregnated with 2 mg/mL BSA solution): Table S8, external group; for RP (Rf, BSA-impregnated RP plate): Table S4, RP plate impregnated with 2 mg/mL BSA, pH 7.4 mobile phase
T1 construct: purchased Sigma Aldrich
T1 sequence (P02769 25-607): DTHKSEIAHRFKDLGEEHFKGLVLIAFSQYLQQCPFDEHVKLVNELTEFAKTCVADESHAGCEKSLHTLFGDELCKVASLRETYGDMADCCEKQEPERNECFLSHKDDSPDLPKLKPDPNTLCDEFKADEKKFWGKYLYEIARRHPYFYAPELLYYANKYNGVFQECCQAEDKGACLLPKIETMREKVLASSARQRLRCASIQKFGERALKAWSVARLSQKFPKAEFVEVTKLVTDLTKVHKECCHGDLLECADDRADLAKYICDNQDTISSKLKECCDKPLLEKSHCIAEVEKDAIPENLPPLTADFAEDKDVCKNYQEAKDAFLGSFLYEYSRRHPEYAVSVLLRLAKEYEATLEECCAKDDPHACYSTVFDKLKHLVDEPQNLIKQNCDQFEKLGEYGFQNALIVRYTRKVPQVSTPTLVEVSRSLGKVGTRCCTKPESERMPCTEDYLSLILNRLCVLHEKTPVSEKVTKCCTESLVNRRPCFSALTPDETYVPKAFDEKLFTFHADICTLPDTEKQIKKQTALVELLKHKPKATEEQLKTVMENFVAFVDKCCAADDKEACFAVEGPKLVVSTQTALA

plasma protein = details: ref DrugBank [7], cited from earlier work
[2] = target: human serum albumin (HSA) (Homo sapiens, UniProt P02768); details: for k HSA: Table S5, retention factor, HSA column, pH 7.4, 25 degrees Celsius; for log k HSA: pH 7.4
Sequence of human serum albumin (HSA) (P02768 25-609): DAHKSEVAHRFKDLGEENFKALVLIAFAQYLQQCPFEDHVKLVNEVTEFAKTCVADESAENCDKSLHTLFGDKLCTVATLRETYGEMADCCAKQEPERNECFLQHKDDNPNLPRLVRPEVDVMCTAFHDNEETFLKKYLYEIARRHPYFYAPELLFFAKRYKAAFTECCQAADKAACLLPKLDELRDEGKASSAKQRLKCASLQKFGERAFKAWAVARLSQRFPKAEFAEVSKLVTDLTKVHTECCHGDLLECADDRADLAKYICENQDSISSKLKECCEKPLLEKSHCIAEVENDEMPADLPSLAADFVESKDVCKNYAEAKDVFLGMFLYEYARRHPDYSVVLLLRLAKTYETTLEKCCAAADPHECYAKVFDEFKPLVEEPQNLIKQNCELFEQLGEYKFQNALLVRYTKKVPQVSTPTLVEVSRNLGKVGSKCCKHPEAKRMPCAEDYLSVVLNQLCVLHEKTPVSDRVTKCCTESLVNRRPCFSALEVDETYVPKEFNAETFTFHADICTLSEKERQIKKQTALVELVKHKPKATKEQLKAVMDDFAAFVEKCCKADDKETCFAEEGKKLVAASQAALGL
Method: High performance liquid chromatography was performed using immobilized human serum albumin column (HPLCHSA) and immobilized artificial membrane (HPLCIAM). HPLC was the source of the log k values (logarithm of retention factor), log kHSA and log kIAM.
High performance liquid chromatography was performed using a chromatography column with immobilized human serum albumin. The assay was performed on a Perkin Elmer Series 200 instrument connected to a UV-VIS spectrometer as detector. The analytical wavelength was the same for all compounds at 210 nm. […] The acetate buffer was prepared by dissolving 0.77 g of ammonium acetate in 1 L of distilled water. The pH was then adjusted with a concentrated ammonia solution using a pH meter.
The phase flow through the system was set to 0.9 mL/min as recommended by the column manufacturer. The solutions were delivered to the column using an autosampler syringe, the injection size was 10 µL. Since the column could not be thermostated, the room was kept at a constant temperature of 25 degrees Celsius.
Chromatographic data (retention coefficient, k, and derivative, log k) were obtained with TotalChrom software connected to an HPLC instrument. […] The experiment was then repeated and the collected retention rates were the mean values of both series.

[3] = RP TLC on non-impregnated control plates; assay type: physicochemical; details: for CRP (Rf value from the non-impregnated RP plate, control): Table S8, external group; for CRP (Rf, control RP plate): Table S4, non-impregnated RP plate, acetonitrile/acetate buffer pH 7.4/methanol 60:20:20
Method: (§1) For TLC chromatography, glass plates 20 × 20 cm from Merck, covered with silica gel with the addition of a fluorescent indicator, were used. Normal phase (NP) plates were used with standard Merck TLC Silica gel 60 F254 plates, while in reverse phase (RP) silanized plates RP-2: Merck TLC Silica gel 60 RP-2 F254 were used.
(§2) Normal and reversed phase thin layer chromatography (NP TLC and RP TLC respectively) was performed using silica-gel-coated glass plates. Half of them were covered with 2 mg/mL bovine serum albumin solution and half remained pure.
(§3) The mobility of the compounds was also determined on the plates with no protein as a modifier. […] The acetate buffer (20 mM) was prepared by dissolving 1.54 g of ammonium acetate in 1 L of distilled water. The pH was then adjusted with a concentrated ammonia solution using a pH meter. The plates were developed in standard, vertical chromatographic chambers, each time using 100 mL of the mobile phase, after the chamber was previously saturated with solvent vapors for approximately 1 h.
(§4) The unfolded-protein-impregnated plates and the control plates were scanned with a Desaga CD 60 densitometer. The values of the delay factor (Rf) were collected, i.e., the ratio of the distance traveled by the substance to be analyzed to the distance traveled through the front of the mobile phase. […] The experiment was repeated (for both BSA-coated and control plates) and the Rf values pooled are the mean of both series of experiments.

[4] = NP TLC on non-impregnated control plates; assay type: physicochemical; details: for CNP (Rf, control NP plate): Table S3, non-impregnated NP plate, acetonitrile/acetate buffer pH 7.4/methanol 60:20:20; for CNP (Rf value from the non-impregnated NP plate, control): Table S8, external group
Method: as §1, §2, §3, §4

[5] = target: T1, bovine serum albumin (BSA); experiment: NP TLC on plates impregnated with bovine serum albumin; assay type: binding; details: for NP (Rf, BSA-impregnated NP plate): Table S3, NP plate impregnated with 2 mg/mL BSA, pH 7.4 mobile phase; for NP (Rf value from the NP plate impregnated with 2 mg/mL BSA solution): Table S8, external group
From the text: Chromatographic descriptors were obtained in experiments, thin layer chromatography in normal (NP TLC) and reversed mode (RP TLC). The stationary phase was modified with bovine serum albumin (BSA). TLC was the source of retention factor (Rf) values, denoted in statistical models as NP and RP.
as §1
The stationary phase of the plates, both NP and RP, was modified with an aqueous solution of bovine serum albumin purchased from Sigma Aldrich (bovine serum albumin, lyophilized powder).
The impregnation of the plates was carried out with a 2 mg/mL solution applied to the surface using a Desaga SG 1 hand sprayer; the plates were then air dried. […] Normal and reversed phase thin layer chromatography (NP TLC and RP TLC respectively) was performed using silica-gel-coated glass plates. Half of them were covered with 2 mg/mL bovine serum albumin solution and half remained pure.
as §3, §4

[6] = HPLC on immobilized artificial membrane column (HPLCIAM); assay type: physicochemical; details: for log k IAM: Table S5, IAM column, pH 7.4; for k IAM: Table S5, retention factor, IAM column, phosphate buffer pH 7.4/acetonitrile 80:20
[7] = Table S6, external group (n = 38), given as fraction
[8] = Table S1, plasma protein binding given as fraction

Row | Structure (SMILES) | RP (Rf, BSA-impregnated RP plate) [1] | CNP (Rf, control NP plate) [4] | NP (Rf, BSA-impregnated NP plate) [5] | log k IAM [6] | k IAM [6] | PB (plasma protein; [8]) | k HSA [2] | CRP (Rf, control RP plate) [3] | also measured
1 | CC(=O)Nc1nnc(S(N)(=O)=O)s1 [acetazolamid] |  |  |  |  |  |  |  |  | RP (Rf value from the RP plate impregnated with 2 mg/mL BSA solution) [1]: 0.96; PB (plasma protein; [7]): 0.98; kHSA [2]: 0.74; log kHSA [2]: -0.13; CRP (Rf value from the non-impregnated RP plate, control) [3]: 0.97
2 | COc1ccc(CCN2CCC(Nc3nc4ccccc4n3Cc3ccc(F)cc3)CC2)cc1 [astemizol] | 0.62 | 0.62 | 0.61 | 1.42 | 26.27 | 0.967 | 13.32 | 0.65 | log k HSA ([2]; human, immobilized hsa column): 1.12
3 | CCCCCOC(=O)Nc1nc(=O)n([C@@H]2O[C@H](C)[C@@H](O)[C@H]2O)cc1F [capecitabine] | 0.89 | 0.92 | 0.92 | 0.04 | 1.11 | 0.6 |  | 0.90 | 
4 | O=C(N[C@H](CO)[C@H](O)c1ccc([N+](=O)[O-])cc1)C(Cl)Cl [chloramphenikol] | 0.89 | 0.99 | 0.97 | 0.03 | 1.08 |  | 0.61 | 0.89 | log k HSA ([2]; Table S5, HSA): -0.21
5 | NS(=O)(=O)c1cc(C2(O)NC(=O)c3ccccc32)ccc1Cl (stereo not drawn) [chlortalidone] |  | 0.96 | 0.96 | 0.12 | 1.32 | 0.75 | 0.85 |  | 
6 | C[C@]12CC[C@@H]3c4ccc(OC(=O)c5ccccc5)cc4CC[C@H]3[C@@H]1CC[C@@H]2O [estradiol benzoate] | 0.62 | 0.97 | 0.98 | 0.84 | 6.92 | 0.95 |  | 0.63 | 
7 | C[C@]12CC[C@@H]3c4ccc(O)cc4CC[C@H]3[C@@H]1CCC2=O [estrone] |  | 0.99 | 0.99 | 1.47 | 29.40 | 0.95 |  | 0.79 | 
8 | CCC1(c2ccccc2)C(=O)NCNC1=O [primidone] |  |  |  |  |  |  |  |  | RP (Rf value from the RP plate impregnated with 2 mg/mL BSA solution) [1]: 0.97; CNP (Rf value from the non-impregnated NP plate, control) [4]: 0.90; NP (Rf value from the NP plate impregnated with 2 mg/mL BSA solution) [5]: 0.93; kIAM ([6]; Table S9, external group): 2.02; log kIAM ([6]; Table S9, external group): 0.31; kHSA ([2]; Table S9, external group): 0.22; log kHSA ([2]; Table S9, external group): -0.66; CRP (Rf value from the non-impregnated RP plate, control) [3]: 0.93
9 | CC(C)NCC(O)COc1cccc2ccccc12 (stereo not drawn) [propranolol] |  | 0.54 | 0.50 | 1.45 | 28.09 |  |  |  | 
10 | CC[C@H]1OC(=O)[C@H](C)[C@@H](O[C@H]2C[C@@](C)(OC)[C@@H](O)[C@H](C)O2)[C@H](C)[C@@H](O[C@@H]2O[C@H](C)C[C@H](N(C)C)[C@H]2O)[C@](C)(O)C[C@@H](C)/C(=N\OCOCCOC)[C@H](C)[C@@H](O)[C@]1(C)O [roxitromicin] | 0.79 | 0.91 | 0.92 |  |  | 0.96 | 1.03 | 0.80 | log k HSA ([2]; Table S5, HSA): 0.01
11 | COc1cc(Cc2cnc(N)nc2N)cc(OC)c1OC [trimethoprim] |  |  |  |  |  |  |  |  | CNP (Rf value from the non-impregnated NP plate, control) [4]: 0.57; NP (Rf value from the NP plate impregnated with 2 mg/mL BSA solution) [5]: 0.59; PB (plasma protein; [7]): 0.44
12 | CCCCC(=O)N(Cc1ccc(-c2ccccc2-c2nnn[nH]2)cc1)[C@H](C(=O)O)C(C)C [valsartan] |  | 0.89 |  | -1.10 | 0.08 | 0.955 |  | 0.97 | 
